In the SangsterLogP compilation:

Test: from Caliendo, G., Novellino, E., Santagada, V., Silipo, C., & Vittoria, A. (1991). Structure-activity relationships in a set of antimicrobial. In QSAR, Rational Approaches to the Design of Bioactive …

| SMILES | logP |
| --- | --- |
| O=C(Nc1ccc2nn(C3CCCCC3)nc2c1)c1ccc([N+](=O)[O-])cc1 | 4.57 |
| O=C(Nc1ccc2nn(C3CCCCC3)nc2c1)c1ccc(Cl)c(Cl)c1 | 5.85 |
| Cn1nc2ccc(NC(=O)c3ccc(Cl)cc3)cc2n1 | 3.13 |

Further lines, results first:

| logP | SMILES |
| --- | --- |
| 3.87 | O=C(Nc1ccc2nn(C3CCCCC3)nc2c1)C(Cl)Cl |
| 2.53 | Cn1nc2ccc(NC(=O)c3ccc([N+](=O)[O-])cc3)cc2n1 |
| 2.44 | Cn1nc2ccc(NC(=O)c3ccccc3)cc2n1 |
| 4.45 | O=C(Nc1ccc2nn(C3CCCCC3)nc2c1)c1ccccc1 |
| 1.22 | Cn1nc2ccc(NC(=O)CCl)cc2n1 |
| 2.38 | COc1cc(C(=O)Nc2ccc3nn(C)nc3c2)cc(OC)c1OC |

Test: not given

| SMILES | logP |
| --- | --- |
| COc1cc(C(=O)Nc2ccc3nn(C4CCCCC4)nc3c2)cc(OC)c1OC | 4.45 |
